# Reference: patent US10759810B2 (AO “TATKHIMFARMPREPARATY”, priority 2016, dated 2020)
# Experiments:
# [1] = tested on: Pseudomonas aeruginosa ATCC 27853 (museum strain); assay: MIC, serial dilutions in Mueller-Hinton broth; type: cell-based; conditions: inoculum 10^7 CFU/ml; gram-negative
# Experimental: (§1) Measurement of antibacterial activity was carried out on the strains of Staphylococcus aureus ATCC 29213 (museum strain), Staphylococcus epidermidis (clinical isolate), Micrococcus luteus (clinical isolate), Bacillus subtilis 168 (museum strain), Escherichia coli ATCC 25922 (museum strain), Salmonella typhimurium TA100 (museum strain), Pseudomonas aeruginosa ATCC 27853 (museum strain). A comparative assessment of the spectrum of antibacterial action on reference strains and clinical isolates of gram-positive microorganisms was carried out using a micromethod for determining the minimum inhibitory concentration (MIC) using serial dilutions in Mueller-Hinton broth using 96-well sterile plates.
# (§2) The first lowest concentration of the antibiotic (from a series of successive dilutions), where bacterial growth is not visually determined, is considered to be the minimum inhibitory concentration (MIC).
# (§3) For the preparation of inoculum (infectious material used for artificial contamination), intended for the study of antibacterial activity, was used a pure daily culture of bacteria grown on a dense nutrient medium (agar LB medium). In a sterile isotonic solution of sodium chloride, a suspension of microorganisms was prepared, adjusting the inoculum density to 0.5 according to the McFarland standard (1.5·10^8 CFU/ml). Then, the resulting inoculum was diluted to a concentration of 10^7 CFU/ml with LB-broth. The inoculum was used for 15 minutes after preparation; the purity of the bacterial strains was monitored before each experiment.
# (§4) 100 μl of Muller-Hinton broth was added to the wells of each plate; the test base was introduced into the first well at a concentration of 128 μg/ml in a volume of 100 μl and its concentration was adjusted to 0.25 μg/ml by consecutive two-fold dilution. […] Each preparation in the experiment was titrated three times. […] In addition, the purity of nutrient media and solvents was monitored. The plates were incubated in a thermostat at […] for 24 hours.
# (§5) The growth of cultures was assessed visually, comparing the growth of microorganisms in the presence of test compounds with the growth of culture without them.
# [2] = tested on: Micrococcus luteus (clinical isolate); assay: MIC, serial dilutions in Mueller-Hinton broth; type: cell-based; conditions: inoculum 10^7 CFU/ml; gram-positive
# Experimental: as §1, §2, §3, §4, §5
# [3] = tested on: Staphylococcus aureus ATCC 29213 (museum strain); assay: MIC, serial dilutions in Mueller-Hinton broth; type: cell-based; conditions: inoculum 10^7 CFU/ml; gram-positive
# Experimental: as §1, §2, §3, §4, §5
# [4] = tested on: Escherichia coli ATCC 25922 (museum strain); assay: MIC, serial dilutions in Mueller-Hinton broth; type: cell-based; conditions: inoculum 10^7 CFU/ml; gram-negative
# Experimental: as §1, §2, §3, §4, §5
# [5] = tested on: Staphylococcus epidermidis (clinical isolate); assay: MIC, serial dilutions in Mueller-Hinton broth; type: cell-based; conditions: inoculum 10^7 CFU/ml; gram-positive
# Experimental: as §1, §2, §3, §4, §5
# [6] = tested on: Salmonella typhimurium TA100 (museum strain); assay: MIC, serial dilutions in Mueller-Hinton broth; type: cell-based; conditions: inoculum 10^7 CFU/ml; gram-negative
# Experimental: as §1, §2, §3, §4, §5
# [7] = tested on: Bacillus subtilis 168 (museum strain); assay: MIC, serial dilutions in Mueller-Hinton broth; type: cell-based; conditions: inoculum 10^7 CFU/ml; gram-positive
# Experimental: as §1, §2, §3, §4, §5
# [8] = tested on: gram-positive microorganisms; assay: Antibacterial activity (MIC), gram-positive strains; type: cell-based; conditions: in words, versus comparison drugs
# Experimental: as §1, §2
# (§6) For the preparation of inoculum (infectious material used for artificial contamination), intended for the study of antibacterial activity, was used a pure daily culture of bacteria grown on a dense nutrient medium (agar LB medium). […] The inoculum was used for 15 minutes after preparation; the purity of the bacterial strains was monitored before each experiment. […]
# [9] = tested on: microorganism strains under study; assay: Antibacterial activity (MIC), whole strain panel; type: cell-based; conditions: in words, from Table 1
# Experimental: as §1, §2, §6
# [10] = tested on: S. aureus MRSA 1143; assay: MIC on clinical strain; type: cell-based, Staphylococcus aureus; conditions: inoculum 10^7 CFU/ml
# Experimental: as §1, §2, §3, §4, §5
# [11] = tested on: S. aureus MRSA 2020; assay: MIC on clinical strain; type: cell-based, Staphylococcus aureus; conditions: inoculum 10^7 CFU/ml
# Experimental: as §1, §2, §3, §4, §5
# [12] = tested on: S. aureus MRSA 981; assay: MIC on clinical strain; type: cell-based, Staphylococcus aureus; conditions: inoculum 10^7 CFU/ml
# Experimental: as §1, §2, §3, §4, §5
# [13] = tested on: S. aureus MRSA 1065; assay: MIC on clinical strain; type: cell-based, Staphylococcus aureus; conditions: inoculum 10^7 CFU/ml
# Experimental: as §1, §2, §3, §4, §5
# [14] = tested on: S. aureus MRSA 983; assay: MIC on clinical strain; type: cell-based, Staphylococcus aureus; conditions: inoculum 10^7 CFU/ml
# Experimental: as §1, §2, §3, §4, §5
# [15] = tested on: S. aureus MRSA 1130; assay: MIC on clinical strain; type: cell-based, Staphylococcus aureus; conditions: inoculum 10^7 CFU/ml
# Experimental: as §1, §2, §3, §4, §5
# [16] = tested on: S. aureus MRSA 1053; assay: MIC on clinical strain; type: cell-based, Staphylococcus aureus; conditions: inoculum 10^7 CFU/ml
# Experimental: as §1, §2, §3, §4, §5
# [17] = tested on: S. aureus MRSA 1168; assay: MIC on clinical strain; type: cell-based, Staphylococcus aureus; conditions: inoculum 10^7 CFU/ml
# Experimental: as §1, §2, §3, §4, §5
# [18] = tested on: S. aureus MRSA 1173; assay: MIC on clinical strain; type: cell-based, Staphylococcus aureus; conditions: inoculum 10^7 CFU/ml
# Experimental: as §1, §2, §3, §4, §5
# [19] = tested on: S. aureus MRSA 967; assay: MIC on clinical strain; type: cell-based, Staphylococcus aureus; conditions: inoculum 10^7 CFU/ml
# Experimental: as §1, §2, §3, §4, §5
# [20] = tested on: S. aureus MRSA 1163; assay: MIC on clinical strain; type: cell-based, Staphylococcus aureus; conditions: inoculum 10^7 CFU/ml
# Experimental: as §1, §2, §3, §4, §5
# [21] = tested on: S. aureus MRSA 1131; assay: MIC on clinical strain; type: cell-based, Staphylococcus aureus; conditions: inoculum 10^7 CFU/ml
# Experimental: as §1, §2, §3, §4, §5
molecule,measurement,setting,value
"1-cyclopropyl-6-fluoro-7-(4-((5-hydroxy-2,4-bis(hydroxymethyl)-6-methylpyridine-3-yl) methyl) piperazinyl)-4-oxo-1,4-dihydroquinolin-3-carboxylic acid [Compound I-9]","MIC, P. aerugenosa",[1],>64 µg/mL
same,"MIC, M. luteus",[2],2 µg/mL
same,"MIC, S. aureus",[3],0.5 µg/mL
same,"MIC, E. coli",[4],64 µg/mL
same,"MIC, S. epidermidis",[5],8 µg/mL
same,"MIC, S. typhimurium",[6],4 µg/mL
same,"MIC, B. subtilis",[7],4 µg/mL
same,antibacterial action with respect to gram-positive microorganisms,[8],comparable with the comparison drugs
same,antibacterial activity against the microorganism strains under study,[9],most active
"CO/N=C(\C(=O)N[C@@H]1C(=O)N2C(C(=O)O)=C(CSc3nc(=O)c(O)nn3C)CS[C@H]12)c1csc(N)n1 [Ceftriaxon, ceftriaxone]","The value of the MIC, S. aureus MRSA 1143",[10],>64 µg/mL
same,"The value of the MIC, S. aureus MRSA 2020",[11],2 µg/mL
same,"The value of the MIC, S. aureus MRSA 981",[12],>64 µg/mL
same,"The value of the MIC, S. aureus MRSA 1065",[13],>64 µg/mL
same,"The value of the MIC, S. aureus MRSA 983",[14],>64 µg/mL
same,"The value of the MIC, S. aureus MRSA 1130",[15],>64 µg/mL
same,"The value of the MIC, S. aureus MRSA 1053",[16],>64 µg/mL
same,"The value of the MIC, S. aureus MRSA 1168",[17],0.5 µg/mL
same,"The value of the MIC, S. aureus MRSA 1173",[18],>64 µg/mL
same,"The value of the MIC, S. aureus MRSA 967",[19],>64 µg/mL
same,"The value of the MIC, S. aureus MRSA 1163",[20],>64 µg/mL
same,"The value of the MIC, S. aureus MRSA 1131",[21],>64 µg/mL
